Data as given in publication PMC6396153, “Dechlorination of polychlorobiphenyl degradation metabolites by a recombinant glutathione S‐transferase from Acidovorax sp. KKS102” (FEBS Open Bio, 2019).

Test system: BphK-KKS
Assay: absorbance at […] nm, non-linear regression
Type: biochemical, Acidovorax sp. KKS102
Conditions: GSH held constant, CDNB varied 0.3-2.1 mM, 50 mM sodium phosphate pH 6.5; read-out: CDNB / K m

## O=[N+]([O-])c1ccc(Cl)c([N+](=O)[O-])c1 [CDNB, 1-chloro-2,4-dinitrobenzene]
  Km: 2580 ± 140 µM
